According to patent EP4273147A1, “SUBSTITUTED SPIROLACTAMS, SALTS THEREOF AND THEIR USE AS HERBICIDALLY ACTIVE SUBSTANCES” (Bayer Aktiengesellschaft, priority 2022, dated 2023):

Experiments:
STEME = assay: Herbicidal pre-emergence action (Table A6); assay type: in vivo, Stellaria media; conditions: visual grading after ca. 3 weeks
Description: (§1) Seeds of mono- and dicotyledonous weed plants were sown in plastic pots (double sowings with one species of mono- and one species of dicotyledonous weed plants per pot), in sandy loam, and covered with soil.

POAAN [1] = assay: Herbicidal pre-emergence action (Table A7); assay type: in vivo, Poa annua; conditions: visual grading after ca. 3 weeks; for pest or weed control at 1280 g/ha: Poa annua, pre-emergence, 504 h, read-out: pre-emergence activity against POAAN
Description: as §1

POAAN [2] = assay: Herbicidal post-emergence action (Table B7); assay type: in vivo, Poa annua
Method: (§2) Seeds of mono- and dicotyledonous weed plants were placed in plastic pots in sandy loam soil (doubly sown with in each case one species of mono- or dicotyledonous weed plants per pot), covered with soil and cultivated in a greenhouse under controlled growth conditions. 2 to 3 weeks after sowing, the test plants were treated at the one-leaf stage. […] After the test plants had been kept in the greenhouse under optimum growth conditions for about 3 weeks, the activity of the preparations was rated visually in comparison to untreated controls. For example, 100% activity = the plants have died, 0% activity = like control plants.

ECHCG [3] = assay: Herbicidal post-emergence action (Table B3); assay type: in vivo, Echinochloa crus-galli; conditions: application rate 1280 g/ha; rated visually after about 3 weeks
Method: as §2

SETVI = assay: Herbicidal pre-emergence action (Table A5); assay type: in vivo, Setaria viridis; conditions: visual grading after ca. 3 weeks
Description: as §1

ECHCG [4] = assay: Herbicidal pre-emergence action (Table A2); assay type: in vivo, Echinochloa crus-galli; conditions: visual grading after ca. 3 weeks
Description: as §1

DIGSA = assay: Herbicidal pre-emergence action (Table A12); assay type: in vivo, Digitaria sanguinalis; conditions: application rate 1280 g/ha; visual grading after ca. 3 weeks
Description: as §1

LOLRI = assay: Herbicidal pre-emergence action (Table A3); assay type: in vivo, Lolium rigidum; conditions: application rate 1280 g/ha, visual grading after ca. 3 weeks
Description: as §1

MATIN = assay: Herbicidal pre-emergence action (Table A4); assay type: in vivo, Matricaria inodora; conditions: application rate 320 g/ha; visual grading after ca. 3 weeks
Description: as §1

Row | SMILES | pre-emergence activity against POAAN (POAAN [1]; application rate 1280 g/ha) | pre-emergence activity against SETVI (SETVI; application rate 1280 g/ha) | pre-emergence activity against ECHCG (ECHCG [4]; application rate 1280 g/ha) | other results
1 | O=C1N(Cc2c(F)cccc2C(F)(F)F)CCCC12CCCN(Cc1c(F)cccc1C(F)(F)F)C2=O (racemic) [I-041] | 90% | – | – | pre-emergence activity against STEME (STEME; application rate 320 g/ha): 100%
2 | Cc1ccccc1CN1CCCC2(CCCN(Cc3cccs3)C2=O)C1=O (racemic) [I-043] | – | 100% | – | post-emergence activity against POAAN (POAAN [2]; application rate 320 g/ha): 90%; pre-emergence activity against STEME (STEME; application rate 1280 g/ha): 90%; post-emergence activity against ECHCG (ECHCG [3]): 90%; pre-emergence activity against ECHCG (ECHCG [4]; application rate 320 g/ha): 100%; pre-emergence activity against POAAN (POAAN [1]; application rate 320 g/ha): 100%
3 | O=C1N(Cc2c(F)c(F)c(F)c(F)c2F)CCCC12CCCN(Cc1c(F)c(F)c(F)c(F)c1F)C2=O (racemic) [I-050] | 100% | 100% | 100% | pre-emergence activity against STEME (STEME; application rate 1280 g/ha): 100%; post-emergence activity against ECHCG (ECHCG [3]): 100%
4 | O=C1N(Cc2ccccc2Br)CCCC12CCCN(Cc1ccccc1Br)C2=O (racemic) [I-064] | 100% | 90% | 90% | post-emergence activity against POAAN (POAAN [2]; application rate 1280 g/ha): 100%
5 | O=C1N(Cc2ccccc2C(F)F)CCCC12CCCN(Cc1ccccc1C(F)F)C2=O (racemic) [I-067] | – | 100% | – | pre-emergence activity against POAAN (POAAN [1]; application rate 320 g/ha): 100%
6 | O=C1N(Cc2ccc(F)cc2Cl)CCCC12CCCN(Cc1ccc(F)cc1Cl)C2=O (racemic) [I-070] | 100% | – | – | pre-emergence activity against STEME (STEME; application rate 1280 g/ha): 90%
7 | O=C1N(Cc2c(F)ccc(F)c2Cl)CCCC12CCCN(Cc1c(F)ccc(F)c1Cl)C2=O (racemic) [I-078] | 100% | – | – | pre-emergence activity against STEME (STEME; application rate 320 g/ha): 90%
8 | Cc1ccccc1CN1CCCC2(CCN(Cc3ccccc3F)C2=O)C1=O (racemic) [I-086] | 100% | 90% | 100% | pre-emergence activity against DIGSA (DIGSA): 100%
9 | N#Cc1ccccc1CN1CCCC2(CCCN(Cc3ccccc3C#N)C2=O)C1=O (racemic) [I-094] | 100% | 90% | – | –
10 | O=C1N(Cc2ccsc2)CCCC12CCCN(Cc1ccccc1Cl)C2=O (racemic) [I-099] | – | 100% | 100% | pre-emergence activity against LOLRI (LOLRI): 100%
11 | CCc1cc(CN2CCCC3(CCCN(Cc4cc(CC)no4)C3=O)C2=O)on1 (racemic) [I-100] | – | – | 100% | pre-emergence activity against LOLRI (LOLRI): 100%
12 | COc1ccccc1CN1CCCC2(CCCN(c3ccccc3)C2=O)C1=O (racemic) [I-102] | 90% | 90% | 90% | pre-emergence activity against STEME (STEME; application rate 1280 g/ha): 90%
13 | O=C1N(Cc2ccsc2)CCCC12CCCN(Cc1ccccc1F)C2=O (racemic) [I-104] | – | – | – | pre-emergence activity against SETVI (SETVI; application rate 320 g/ha): 90%; pre-emergence activity against ECHCG (ECHCG [4]; application rate 320 g/ha): 90%; pre-emergence activity against POAAN (POAAN [1]; application rate 320 g/ha): 100%; pre-emergence activity against MATIN (MATIN): 90%
14 | O=C1N(Cc2cc(Cl)cnc2Cl)CCCC12CCCN(Cc1cc(Cl)cnc1Cl)C2=O (racemic) [I-117] | 100% | 100% | – | –
15 | Cc1cc(CN2CCCC3(CCCN(Cc4cc(C)no4)C3=O)C2=O)on1 (racemic) [I-195, 2,8-bis[(3-methyl-1,2-oxazol-5-yl)methyl]-2,8-diazaspiro[5.5]undecane-1,7-dione] | – | – | – | pest or weed control at 1280 g/ha (POAAN [1]; application rate 1280 g/ha): 100%
16 | O=C1N(Cc2cnc(Br)s2)CCCC12CCCN(Cc1cnc(Br)s1)C2=O (racemic) [I-204, 2,8-bis[(2-bromo-1,3-thiazol-5-yl)methyl]-2,8-diazaspiro[5.5]undecane-1,7-dione] | – | – | 100% | pest or weed control at 1280 g/ha (LOLRI; Lolium rigidum, pre-emergence, 504 h, read-out: pre-emergence activity against LOLRI): 90%; pest or weed control at 1280 g/ha (POAAN [1]; application rate 1280 g/ha): 100%
17 | O=C1N(Cc2ccsc2Br)CCCC12CCCN(Cc1ccsc1Br)C2=O (racemic) [I-216, 2,8-bis[(2-bromothien-3-yl)methyl]-2,8-diazaspiro[5.5]undecane-1,7-dione] | – | – | – | pest or weed control at 1280 g/ha (POAAN [1]; application rate 1280 g/ha): 90%
